The target in series [1] is T1, Sphingosine 1-phosphate receptor 5 (Homo sapiens, UniProt Q9H228). The series can be described thus: Agonist activity at human SIP5 receptor by [35S]GTPgammaS binding assay. Format: functional.
Series [2] has as its target T1, Sphingosine 1-phosphate receptor 5. The series can be described thus: Agonist activity at human SIP5 receptor at 10 uM by [35S]GTPgammaS binding assay relative to S1P. Format: functional. (In general: GTPγS resists hydrolysis and so accumulates on activated G proteins.)
For series [3], the target named is T2, Sphingosine 1-phosphate receptor 1 (Homo sapiens, UniProt P21453). The series can be described thus: Agonist activity at human SIP1 receptor expressed in CHO cells by [35S]GTPgammaS binding assay. Format: functional, cell-based.
The target of series [4] is T3, Sphingosine 1-phosphate receptor 3 (Homo sapiens, UniProt Q99500). Nature of the series: Agonist activity at human SIP3 receptor by [35S]GTPgammaS binding assay. The class given is functional.
Series [5] addresses T3, Sphingosine 1-phosphate receptor 3. Nature of the series: Agonist activity at human SIP3 receptor at 10 uM by [35S]GTPgammaS binding assay relative to S1P. Format: functional.
Series [6] addresses T4, Sphingosine 1-phosphate receptor 4 (Homo sapiens, UniProt O95977).
T4 sequence (O95977 whole entry): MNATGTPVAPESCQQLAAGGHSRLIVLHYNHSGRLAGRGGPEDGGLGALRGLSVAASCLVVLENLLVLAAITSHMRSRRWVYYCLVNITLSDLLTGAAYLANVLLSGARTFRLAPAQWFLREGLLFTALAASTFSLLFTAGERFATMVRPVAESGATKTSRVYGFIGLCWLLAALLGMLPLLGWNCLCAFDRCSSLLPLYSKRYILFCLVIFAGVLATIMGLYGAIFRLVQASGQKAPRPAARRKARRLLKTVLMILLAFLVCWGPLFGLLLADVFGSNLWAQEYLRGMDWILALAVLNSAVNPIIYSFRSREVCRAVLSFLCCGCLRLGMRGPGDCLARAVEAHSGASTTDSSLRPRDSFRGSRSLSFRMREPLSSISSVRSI
The series can be described thus: Agonist activity at human SIP4 receptor by [35S]GTPgammaS binding assay. Format: functional.

In series [7] the target is T5, Sphingosine 1-phosphate receptor 4 (Homo sapiens) (UniProt O95977).
T5 sequence (whole entry): T4 sequence (O95977 whole entry)
The series can be described thus: Agonist activity at human SIP4 receptor at 10 uM by [35S]GTPgammaS binding assay relative to S1P. Format: functional.

The target of series [8] is T2, Sphingosine 1-phosphate receptor 1. As to conditions: CHO, at 10 µM.
Description: Agonist activity at human SIP1 receptor expressed in CHO cells at 10 uM by [35S]GTPgammaS binding assay relative to S1P
The species named for series [9] is Homo sapiens. The series can be described thus: Selectivity ratio, EC50 for human S1P1 receptor over EC50 for human S1P4 receptor.
The species named for series [10] is Homo sapiens. The series can be described thus: Selectivity ratio, EC50 for human S1P1 receptor over EC50 for human S1P5 receptor.
Series [11] concerns Rattus norvegicus. The series can be described thus: Reduction of lymphocytes count in Lewis rat blood at 3 mg/kg. po. Format: functional, organism-based. The arrangement: dose 3 mg/kg.
The test system of series [12] is Rattus norvegicus. The series can be described thus: Reduction of lymphocytes count in Lewis rat blood at 0.3 mg/kg. iv. Format: functional, organism-based. The arrangement: dose 0.3 mg/kg.
Series [13] in a line: Chemical stability at pH >7 assessed as half life. Format: physicochemical.

Active and inactive are the calls of the source.

T2 sequence (P21453 whole entry): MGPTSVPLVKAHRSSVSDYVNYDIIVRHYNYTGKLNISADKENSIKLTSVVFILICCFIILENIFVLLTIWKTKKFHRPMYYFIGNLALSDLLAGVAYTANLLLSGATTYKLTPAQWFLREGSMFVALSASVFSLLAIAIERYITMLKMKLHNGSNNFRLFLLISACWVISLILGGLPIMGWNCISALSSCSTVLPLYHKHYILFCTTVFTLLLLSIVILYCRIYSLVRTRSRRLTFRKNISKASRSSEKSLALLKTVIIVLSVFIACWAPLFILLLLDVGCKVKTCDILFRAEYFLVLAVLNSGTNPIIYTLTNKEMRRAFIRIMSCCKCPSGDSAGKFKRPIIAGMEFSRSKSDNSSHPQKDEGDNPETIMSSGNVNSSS
T3 sequence (Q99500 whole entry): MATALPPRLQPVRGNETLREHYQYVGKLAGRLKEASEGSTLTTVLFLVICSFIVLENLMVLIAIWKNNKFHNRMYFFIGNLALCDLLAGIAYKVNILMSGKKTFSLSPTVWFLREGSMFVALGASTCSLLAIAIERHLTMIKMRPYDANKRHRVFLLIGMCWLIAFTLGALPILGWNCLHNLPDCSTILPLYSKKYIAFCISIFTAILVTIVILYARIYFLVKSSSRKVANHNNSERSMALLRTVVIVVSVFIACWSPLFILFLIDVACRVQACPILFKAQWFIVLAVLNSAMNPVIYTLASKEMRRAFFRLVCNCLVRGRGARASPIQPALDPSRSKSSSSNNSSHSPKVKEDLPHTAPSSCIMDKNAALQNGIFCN
T1 sequence (Q9H228 whole entry): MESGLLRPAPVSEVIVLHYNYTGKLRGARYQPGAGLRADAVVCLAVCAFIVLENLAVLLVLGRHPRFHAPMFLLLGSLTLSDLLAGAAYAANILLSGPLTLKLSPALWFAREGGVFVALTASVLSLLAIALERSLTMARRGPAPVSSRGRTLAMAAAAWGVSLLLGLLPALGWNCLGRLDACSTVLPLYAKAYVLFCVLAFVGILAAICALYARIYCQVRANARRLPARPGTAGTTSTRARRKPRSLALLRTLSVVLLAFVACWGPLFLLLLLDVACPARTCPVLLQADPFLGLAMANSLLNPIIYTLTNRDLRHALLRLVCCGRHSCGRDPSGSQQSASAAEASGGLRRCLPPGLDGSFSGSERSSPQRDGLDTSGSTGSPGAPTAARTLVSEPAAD

In the case of `CCCCCCC(=O)n1nc(C)c2c1C[C@@H]1[C@H]2C1(C)C`, the EC50 in series [1], in series [3], in [4] and in series [6] was above 10000 nM in each case. The Emax (commonly the maximal effect, on the per cent scale that the assay sets) in series [2] is 2%; in series [5], 44%; in [7], -6%; in series [8] it was 25%.
As to `Cc1nn(C(=O)/C=C/c2cccc(S(N)(=O)=O)c2)c2c1[C@H]1[C@@H](C2)C1(C)C`, the EC50 (as a rule, the concentration needed to bring the measured effect to its halfway point) came to 82 nM in series [1], 11 nM in [3], 1350 nM in series [4] and 116 nM in [6]. The Emax is 76% in series [2], 84% in [5], 21% in [7] and 92% in series [8].
For `Cc1nn(C(=O)/C=C/c2ccc(S(N)(=O)=O)cc2)c2c1[C@H]1[C@@H](C2)C1(C)C`, the EC50 is above 10000 nM in series [1], 119 nM in series [3], above 1000 nM in [4] and above 10000 nM in series [6]. For the same molecule, the Emax in series [2] is 16%; in [5], 68%; in series [7] it was -22%; in [8], 68%.
Consider `Cc1nn(C(=O)CCc2ccccc2)c2c1[C@H]1[C@@H](C2)C1(C)C`, for which the EC50 is above 10000 nM in series [1], 86 nM in series [3], above 10000 nM in series [4] and above 10000 nM in [6]. Moreover, the Emax was found to be 26% in [2], 38% in series [5], 0% in [7] and 55% in [8].
Turning to `Cc1nn(C(=O)/C=C/c2cccnc2)c2c1[C@H]1[C@@H](C2)C1(C)C`, the EC50 in [1] was 345 nM; in series [3], 17 nM; in series [4] it was above 1000 nM; in series [6], 100 nM. Further, the Emax amounted to 87% in series [2], 61% in series [5], 30% in series [7] and 90% in [8].
As to `Cc1nn(C/C=C/c2ccccc2)c2c1[C@H]1[C@@H](C2)C1(C)C`, the EC50 in [1], in series [3], in series [4] and in series [6] was above 10000 nM in each case. For the same molecule, the Emax worked out at 10% in series [2], 14% in [5], 10% in series [7] and 45% in series [8].
Consider `Cc1nn(C(=O)/C=C/c2ccc(-c3ccccc3)cc2)c2c1[C@H]1[C@@H](C2)C1(C)C`, for which the EC50 in series [1] is above 10000 nM; in series [3], 280 nM; in series [4], above 10000 nM; in series [6], above 10000 nM. The Emax in [2] is 22%; in series [5], 8%; in [7], 1%; in series [8], 76%.
`Cc1nn(S(=O)(=O)/C=C/c2ccccc2)c2c1[C@H]1[C@@H](C2)C1(C)C`: the EC50 in [1], in [3], in series [4] and in series [6] was above 10000 nM each time. For the same molecule, the Emax in series [2] is -1%; in series [5] it was -2%; in series [7], -19%; in series [8], 7%.
In the case of `Cc1nn(C(=O)/C=C/c2cccc(C(F)(F)F)c2)c2c1[C@H]1[C@@H](C2)C1(C)C`, the EC50 is 325 nM in series [1], 26 nM in series [3], above 10000 nM in [4] and above 10000 nM in [6]. For the same molecule, the Emax in [2] is 56%; in series [5], 46%; in [7], 17%; in series [8], 65%.
With `Cc1nn(C(=O)/C=C/c2ccccc2)c2c1[C@H]1[C@@H](C2)C1(C)C`, the EC50 is 1760 nM in series [1], above 1000 nM in [4] and above 10000 nM in series [6]. The Emax is 90% in [2], 94% in [5] and -2% in series [7].
As to `Cc1nn(C(=O)/C=C/c2cccc3[nH]ccc23)c2c1[C@H]1[C@@H](C2)C1(C)C`, the EC50 in [1] amounted to 505 nM; in series [3], 2 nM; in series [4] it was 995 nM; in [6] it was 560 nM. Besides, the Emax in series [2] came to 130%; in series [5], 84%; in [7], 28%; in series [8], 90%. For the same molecule, the Ratio EC50 in [9] and in series [10] was 250 each time. Further, the result in series [11] and in series [12] was inactive.
As to `Cc1nn(C(=O)/C=C/C2CCCCC2)c2c1[C@H]1[C@@H](C2)C1(C)C`, the EC50 in series [1], in series [3], in series [4] and in [6] was above 10000 nM each time. For the same molecule, the Emax in series [2] came to 29%; in series [5], 3%; in series [7], 15%; in series [8], 18%.
As to `Cc1nn(C(=O)/C=C/c2ccccc2Cl)c2c1[C@H]1[C@@H](C2)C1(C)C`, the EC50 was above 10000 nM in series [1], 16 nM in series [3], above 1000 nM in [4] and above 10000 nM in [6]. In addition, the Emax in series [2] is -19%; in series [5], 69%; in series [7], -19%; in [8] it was 89%.
`Cc1nn(C(=O)/C=C/c2ccncc2)c2c1[C@H]1[C@@H](C2)C1(C)C`: the EC50 in [1] worked out at 130 nM; in series [3], 7 nM; in [4] it was 345 nM; in series [6] it was 100 nM. Moreover, the Emax in series [2] was determined as 93%; in series [5], 83%; in [7], 32%; in [8], 92%. In addition, the outcome in series [11] and in series [12] was inactive. The half-life (usually the time needed for the level to fall by half in the phase considered) in series [13] is 3 h.
Turning to `COc1ccc(/C=C/C(=O)n2nc(C)c3c2C[C@@H]2[C@H]3C2(C)C)cc1OC`, the EC50 is 900 nM in series [1], 25 nM in series [3], above 10000 nM in series [4] and above 10000 nM in series [6]. Further, the Emax in [2] was 80%; in series [5], 46%; in [7], 30%; in series [8], 89%.

For the origin of these results see ChEMBL document CHEMBL1153175, “Pyrazole derived from (+)-3-carene; a novel potent, selective scaffold for sphingosine-1-phosphate (S1P(1)) receptor agonists” (Bioorg Med Chem Lett, 2010).
